Reference: ChEMBL document CHEMBL3400118, “New approaches to the synthesis of sildenafil analogues and their enzyme inhibitory activity” (Bioorg Med Chem, 2015)

Experiments:
[1] = molecular target: Carbonic anhydrase 12 (Homo sapiens, UniProt O43570); test: Inhibition of human carbonic anhydrase 12 preincubated for 15 mins by CO2 hydration assay
[2] = molecular target: Carbonic anhydrase 2 (Homo sapiens, UniProt P00918); test: Inhibition of human carbonic anhydrase 2 preincubated for 15 mins by CO2 hydration assay
[3] = molecular target: Cyclin-dependent kinase 2/cyclin E1 (Homo sapiens, UniProt P24941); test: Inhibition of CDK2/Cyclin E (unknown origin) using histone H1 as substrate by [gamma-33P]ATP assay; type: protein-complex assay
[4] = test system: K562; test: Cytotoxicity against human K562 cells after 72 hrs using Calcein AM by fluorescence assay; type: functional, cell-based; details: K562, 72 h
[5] = test system: MCF7; test: Cytotoxicity against human MCF7 cells after 72 hrs using Calcein AM by fluorescence assay; type: functional, cell-based; details: MCF7, 72 h
[6] = molecular target: Carbonic anhydrase 1 (Homo sapiens, UniProt P00915); test: Inhibition of human carbonic anhydrase 1 preincubated for 15 mins by CO2 hydration assay
[7] = molecular target: Carbonic anhydrase 9 (Homo sapiens, UniProt Q16790); test: Inhibition of human carbonic anhydrase 9 preincubated for 15 mins by CO2 hydration assay
[8] = molecular target: Tyrosine-protein kinase ABL1 (Homo sapiens, UniProt P00519); test: Inhibition of Abl (unknown origin) using GGEAIYAAPFKK peptide as substrate by [gamma-33P]ATP assay
Chain of Tyrosine-protein kinase ABL1 (P00519 whole entry): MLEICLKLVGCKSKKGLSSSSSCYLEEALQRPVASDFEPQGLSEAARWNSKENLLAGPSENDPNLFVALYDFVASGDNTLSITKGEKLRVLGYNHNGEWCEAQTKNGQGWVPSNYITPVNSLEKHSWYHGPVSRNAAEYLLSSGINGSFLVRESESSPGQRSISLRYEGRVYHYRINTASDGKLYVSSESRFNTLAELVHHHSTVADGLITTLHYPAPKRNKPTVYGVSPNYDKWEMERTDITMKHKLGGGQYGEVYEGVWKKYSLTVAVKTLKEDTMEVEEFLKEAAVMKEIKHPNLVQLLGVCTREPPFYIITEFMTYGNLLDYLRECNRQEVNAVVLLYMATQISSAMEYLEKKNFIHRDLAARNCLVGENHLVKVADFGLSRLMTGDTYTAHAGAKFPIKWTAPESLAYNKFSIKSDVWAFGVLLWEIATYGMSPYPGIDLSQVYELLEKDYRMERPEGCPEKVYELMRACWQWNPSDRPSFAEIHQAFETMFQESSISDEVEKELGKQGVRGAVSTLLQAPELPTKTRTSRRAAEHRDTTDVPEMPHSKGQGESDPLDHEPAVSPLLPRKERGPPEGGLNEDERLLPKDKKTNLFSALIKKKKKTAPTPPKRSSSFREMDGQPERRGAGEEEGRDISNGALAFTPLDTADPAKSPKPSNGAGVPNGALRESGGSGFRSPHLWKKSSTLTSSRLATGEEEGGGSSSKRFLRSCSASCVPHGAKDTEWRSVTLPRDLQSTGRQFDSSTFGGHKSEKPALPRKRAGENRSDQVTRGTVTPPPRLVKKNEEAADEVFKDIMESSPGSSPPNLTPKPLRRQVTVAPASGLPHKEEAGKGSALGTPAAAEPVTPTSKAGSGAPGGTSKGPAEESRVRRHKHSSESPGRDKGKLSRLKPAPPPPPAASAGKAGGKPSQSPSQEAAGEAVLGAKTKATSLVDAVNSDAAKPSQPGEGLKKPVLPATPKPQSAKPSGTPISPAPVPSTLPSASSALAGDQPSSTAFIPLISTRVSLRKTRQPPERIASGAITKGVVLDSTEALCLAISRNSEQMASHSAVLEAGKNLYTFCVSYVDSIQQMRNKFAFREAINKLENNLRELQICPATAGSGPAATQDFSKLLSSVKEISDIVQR

Chain of Carbonic anhydrase 12 (O43570 whole entry): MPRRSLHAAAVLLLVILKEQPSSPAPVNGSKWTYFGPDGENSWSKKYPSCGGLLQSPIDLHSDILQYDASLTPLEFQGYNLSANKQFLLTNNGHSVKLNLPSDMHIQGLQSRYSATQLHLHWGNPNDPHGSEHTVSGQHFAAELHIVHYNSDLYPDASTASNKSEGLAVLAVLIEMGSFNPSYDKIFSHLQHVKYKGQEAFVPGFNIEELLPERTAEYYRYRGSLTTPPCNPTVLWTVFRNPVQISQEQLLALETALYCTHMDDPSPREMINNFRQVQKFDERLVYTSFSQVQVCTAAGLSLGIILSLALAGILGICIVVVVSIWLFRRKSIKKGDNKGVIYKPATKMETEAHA
Chain of Carbonic anhydrase 1 (P00915 whole entry): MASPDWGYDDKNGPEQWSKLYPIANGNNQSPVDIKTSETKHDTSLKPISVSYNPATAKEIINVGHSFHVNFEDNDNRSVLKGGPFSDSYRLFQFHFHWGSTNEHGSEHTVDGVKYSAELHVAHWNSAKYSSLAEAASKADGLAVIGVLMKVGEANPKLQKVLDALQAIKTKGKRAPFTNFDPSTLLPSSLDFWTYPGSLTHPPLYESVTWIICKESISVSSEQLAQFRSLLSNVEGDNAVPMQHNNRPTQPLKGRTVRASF

| Ki [1] [µM] | Ki [2] [µM] | IC50 [3] [µM] | Ki [6] [µM] | Ki [7] [µM] | IC50 [8] [µM] | SMILES | IC50 [4] [µM] | IC50 [5] [µM] |
| --- | --- | --- | --- | --- | --- | --- | --- | --- |
| 0.636 | > 10 | > 50 | > 10 | 0.0377 | > 50 | CCOc1ccc(S(=O)(=O)N2CCN(C)CC2)cc1-c1nnc2c(n1)c(C)nn2C | > 25 | > 25 |
| 0.0573 | > 10 | > 50 | > 10 | 0.0334 | > 50 | CCOc1ccc(S(=O)(=O)NCCN)cc1-c1nnc2c(n1)c(C)nn2C | > 25 | > 25 |
| 0.0595 | > 10 | > 50 | > 10 | 0.0398 | > 50 | CCOc1ccc(S(=O)(=O)NCCN2CCOCC2)cc1-c1nnc2c(n1)c(C)nn2C | > 25 | > 25 |
| 0.0073 | > 10 | > 50 | > 10 | 0.0381 | > 50 | CCOc1ccc(S(=O)(=O)NCCO)cc1-c1nnc2c(n1)c(C)nn2C | > 25 | > 25 |
| 0.0409 | > 10 | > 100 | > 10 | 0.0326 | > 100 | CCOc1ccc(S(=O)(=O)NC(C)(CO)CO)cc1-c1nnc2c(n1)c(C)nn2C | > 100 | > 100 |
| 0.608 | > 10 | > 100 | > 10 | 0.0313 | > 100 | CCOc1ccc(S(=O)(=O)NC(C)(C)CO)cc1-c1nnc2c(n1)c(C)nn2C | > 100 | > 100 |
| 0.0055 | 0.422 | – | 6.83 | 0.0316 | – | CCOc1ccc(S(N)(=O)=O)cc1-c1nnc2c(n1)c(C)nn2C | – | – |

Further lines, the compound ahead of its results:

| SMILES | Ki [1] [µM] | Ki [2] [µM] | IC50 [3] [µM] | Ki [6] [µM] | Ki [7] [µM] | IC50 [8] [µM] | IC50 [4] [µM] | IC50 [5] [µM] |
| --- | --- | --- | --- | --- | --- | --- | --- | --- |
| CCOc1ccc(S(=O)(=O)N2CCNCC2)cc1-c1nnc2c(n1)c(C)nn2C | 0.616 | > 10 | > 50 | > 10 | 0.0401 | > 50 | > 25 | > 25 |
| CCOc1ccc(S(=O)(=O)N2CCOCC2)cc1-c1nnc2c(n1)c(C)nn2C | 0.0302 | > 10 | > 50 | > 10 | 0.0244 | > 50 | > 25 | > 25 |
| CCOc1ccc(S(=O)(=O)N2CCCCC2)cc1-c1nnc2c(n1)c(C)nn2C | 0.579 | > 10 | > 25 | > 10 | 0.0281 | > 25 | > 25 | > 25 |
| CCOc1ccc(S(=O)(=O)N2CCCC2)cc1-c1nnc2c(n1)c(C)nn2C | 0.606 | > 10 | > 50 | > 10 | 0.0403 | > 50 | > 25 | > 25 |
| CCOc1ccc(S(=O)(=O)N2CCCNCC2)cc1-c1nnc2c(n1)c(C)nn2C | 0.667 | > 10 | 44.3 | > 10 | 0.0309 | 5.9 | > 25 | > 25 |
| CCCc1nn(C)c2nnc(-c3cc(S(=O)(=O)N4CCN(C)CC4)ccc3OCC)nc12 | 0.629 | > 10 | > 25 | > 10 | 0.0154 | > 50 | > 25 | > 25 |
| CCOc1ccc(S(=O)(=O)N(CC)CC)cc1-c1nnc2c(n1)c(C)nn2C | 0.281 | > 10 | > 50 | > 10 | 0.0424 | > 50 | > 25 | > 25 |
| CCCc1nn(C)c2nnc(-c3cc(S(=O)(=O)N4CCNCC4)ccc3OCC)nc12 | 0.0038 | > 10 | – | > 10 | 0.0387 | – | – | – |
| Cc1ccc(NC(=O)c2ccc(CN3CCN(C)CC3)cc2)cc1Nc1nccc(-c2cccnc2)n1 [IMATINIB] | – | – | – | – | – | – | – | > 10 |
